Assay results taken from the CATMoS acute toxicity set (Mansouri et al. 2021).
Where “and” joins values, the source holds several entries; their conditions need not be identical. Equal entries are not always repeated.

Experiments:
rat acute oral toxicity = conditions: in vivo
[1] = GHS categories as the set defines them, by LD50: 1 up to 5, 2 up to 50, 3 up to 300, 4 up to 2000, 5 above 2000 mg/kg; conditions: rat; in vivo; po
[2] = Very toxic (VT; LD50≤50mg/kg vs. all others); conditions: rat; in vivo; po
From the text: (§1) […]The data set underlying the modeling effort for this project was initially compiled by NICEATM and U.S. EPA’s CCTE. Briefly, LD50 data were collected from rat acute oral systemic toxicity tests, including limit tests, ranges/confidence intervals, and discrete LD50 values. The full data set included 21,200 LD50 entries for 15,688 substances. […] Data were reviewed to ensure that LD50 values with obvious errors in the extracted data such as unit conversion errors (e.g., comma and decimal separator misplacements) were either fixed or removed. After this review, 16,209 LD50 values remained. Many of the chemicals represented had multiple LD50 entries, requiring that a single representative value per Chemical Abstracts Service Registry Number (CASRN) identifier be defined to facilitate modeling efforts. Based on ATWG feedback and to define the representative LD50 as a protective value while accounting for the distribution across multiple LD50s, the median of the lowest quartile was computed using only discrete LD50 values (omitting limit test data and range and confidence interval data). A detailed summary of the data compilation is available online on the NICEATM webpage dedicated to the collaborative modeling project (NTP 2020).
(§2) […][…] For categorical designations, limit test and range/confidence interval LD50 data were integrated wherever possible. As such, the number of chemicals with end point values/calls varies across the modeling end points (Table 3) based on whether chemicals had representative LD50 values and/or other data. If a chemical had both, the representative value was used to determine categorical calls rather than limit test data. Some data were useable only for certain end points and categories depending on the thresholds. For example, ranges that spanned multiple hazard categories were considered only for the binary (very toxic/nontoxic) end points and omitted from rendering a determination for hazard category assignment.
(§3) […]The final data set comprising 11,992 chemicals was split into training and evaluation sets […], respectively. This process was performed semirandomly by ordering chemicals based on the five end points (categorical and continuous LD50 values) and partitioning every fourth record into the evaluation set accordingly. This approach was taken to ensure an equivalent distribution of the LD50 values and the different hazard categories between the training and the evaluation sets without supervised sampling of the chemicals based on structures (Figure 1A). The sources of the chemical structures were also kept equivalent between the two sets, with chemical structures obtained from DSSTox, being the highest quality, representing over 75% of each set (Figure 1B).

[3] = Nontoxic (NT; LD50>2,000mg/kg vs. all others); conditions: rat; in vivo; po
From the text: as §1, §2, §3

EPA categories = conditions: rat; in vivo; po
From the text: as §1, §2, §3

SMILES	LD50 (rat acute oral toxicity)	also measured
CCC[C@@H]1C[C@@H](C(=O)N[C@@H]([C@H]2O[C@H](SC)[C@H](O)[C@@H](O)[C@H]2O)[C@@H](C)O)N(C)C1	1000 mg/kg	GHS category [1]: 5
CCCCCCCCCCCCCCCCCCOP1OCC2(CO1)COP(OCCCCCCCCCCCCCCCCCC)OC2 (stereo unspecified)		very_toxic [2]: FALSE (not_very_toxic)
CO[Si](C)(CCCCl)OC		nontoxic [3]: FALSE (not_nontoxic)
CC(=O)O	1940 mg/kg	GHS category [1]: 5
CO[Si](C)(CN=C=O)OC		nontoxic [3]: FALSE (not_nontoxic)
CCO[SiH](OCC)OCC		EPA category (EPA categories): 3
CCC[Si](Cl)(Cl)Cl		nontoxic [3]: FALSE (not_nontoxic)
COc1c(C)cnc(CCl)c1C		nontoxic [3]: FALSE (not_nontoxic)
CC(CC(C)(C)C)C[Si](Cl)(Cl)Cl (stereo unspecified)		nontoxic [3]: FALSE (not_nontoxic)
Cc1cc(C)c(O)c(C(C)(C)C)c1		nontoxic [3]: FALSE (not_nontoxic)
CCCCCCCC/C=C\CCCCCCCC(=O)O	25000 mg/kg	GHS category [1]: 5
O=C1CCCCCN1	1200 mg/kg	GHS category [1]: 4
N[C@@H](CCC(=O)O)C(=O)O	15800 mg/kg	GHS category [1]: 5
CN(C)CCOCCOC(=O)NCC1(C)CC(NC(=O)OCCOCCN(C)C)CC(C)(C)C1 (stereo unspecified)		nontoxic [3]: FALSE (not_nontoxic)
CC(C)OC(=O)NP(N)(N)=O		nontoxic [3]: FALSE (not_nontoxic)
Nc1nc(N)nc(N)n1	3160 mg/kg	GHS category [1]: 5
Cc1ccc(C(C)(C)C)c(O)c1		nontoxic [3]: FALSE (not_nontoxic)
CCN(CC)CC	460 mg/kg	GHS category [1]: 5
CCCCCCCCCCCCCCCC[Si](Cl)(Cl)Cl		nontoxic [3]: FALSE (not_nontoxic)
O=CC1=C(Cl)C(=CO)CCC1		nontoxic [3]: FALSE (not_nontoxic)
CC12CC(N3CCOCC3)C(O)CC1CCC1C2CCC2(C)C(O)C(N3CCCC3)CC12 (stereo unspecified)		nontoxic [3]: FALSE (not_nontoxic)
NC(N)=O	8470 mg/kg	GHS category [1]: 5
CC1OC(=O)C(C)OC1=O (stereo unspecified)	3540 mg/kg	GHS category [1]: 5
OCC(O)CO	9080 mg/kg	GHS category [1]: 5
Cc1cncc(C)c1		EPA category (EPA categories): 2

SMILES	LD50 (rat acute oral toxicity)	also measured
C1CCC2=NCCCN2CC1		nontoxic [3]: FALSE (not_nontoxic)
C[Si](Cl)(Cl)CCCCl		nontoxic [3]: FALSE (not_nontoxic)
NC(N)=Nc1ccccc1		EPA category (EPA categories): 3
CCCCCCCC[N+](C)(CCCCCCCC)CCCCCCCC		nontoxic [3]: FALSE (not_nontoxic)
CC(Cl)(Cl)CC(Cl)(Cl)Cl		EPA category (EPA categories): 2
O=S(=O)(O)c1cc(Nc2nc(Nc3ccccc3)nc(N(CCO)CCO)n2)ccc1/C=C/c1ccc(Nc2nc(Nc3ccccc3)nc(N(CCO)CCO)n2)cc1S(=O)(=O)O	12100 mg/kg	GHS category [1]: 5
NCCNCCNCCNCCN	2100 mg/kg	GHS category [1]: 4
C=CN1CCCC1=O	1020 mg/kg	GHS category [1]: 5
Cc1cccc(S(=O)(=O)O)c1C		EPA category (EPA categories): 3
C=CCOC(=O)C(C)(C)O		nontoxic [3]: FALSE (not_nontoxic)
Nc1ccc(S(=O)(=O)O)cc1	12300 mg/kg	GHS category [1]: 5
Oc1ccccc1	317 mg/kg	GHS category [1]: 5
CN(C)C=CC(=O)c1cccnc1		nontoxic [3]: FALSE (not_nontoxic)
CCC(C)c1cccc(C(C)CC)c1O (stereo unspecified)		nontoxic [3]: FALSE (not_nontoxic)
O=C1c2cccc(Sc3ccccc3)c2C(=O)c2c(Sc3ccccc3)cccc21		EPA category (EPA categories): 3
c1ccc2[nH]nnc2c1	500 mg/kg	GHS category [1]: 4
CCOC(=O)C(C#N)=CN		nontoxic [3]: FALSE (not_nontoxic)
CC1(C(=O)Cl)CCCCC1		nontoxic [3]: FALSE (not_nontoxic)
CN(C(=O)CCl)c1ccc([N+](=O)[O-])cc1		nontoxic [3]: FALSE (not_nontoxic)
C=CCCC	4600 mg/kg	
N#CN	134 mg/kg	
c1ccc2ccccc2c1	2200 mg/kg	
CCOc1ccc2c(c1)C(C)=CC(C)(C)N2	800 mg/kg	
CC(C)CCCCCCCCCCOP(OCCCCCCCCCCC(C)C)OCCCCCCCCCCC(C)C	12000 mg/kg	
CC(C)[C@H](C(=O)O[C@H](C#N)c1cccc(Oc2ccccc2)c1)c1ccc(Cl)cc1	88 mg/kg	

SMILES	LD50 (rat acute oral toxicity)	also measured
CCO[Si](CCC#N)(OCC)OCC	5600 mg/kg	
CCNc1nc(NC(C)C)nc(SC)n1	1060 mg/kg	
ClC1=C(Cl)C2(Cl)C3C(Cl)OC(Cl)C3C1(Cl)C2(Cl)Cl (stereo unspecified)	4.8 mg/kg	
C[C@H]1OC(=O)[C@@H](C)OC1=O	3540 mg/kg	
CCOC(=O)C(SP(=S)(OC)OC)c1ccccc1 (stereo unspecified)	71 mg/kg	
Nc1ccccc1C(F)(F)F	1870 mg/kg	
CSc1ccc2c(c1)N(CCC1CCCCN1C)c1ccccc1S2 (stereo unspecified)	995 mg/kg	
CNP(=O)(OC)Oc1ccc(C(C)(C)C)cc1Cl (stereo unspecified)	460 mg/kg	
Cc1c(N)cccc1N	1000 mg/kg	
OCCCCCCO	3000 mg/kg	
CCCCC(Cc1cc(C(C)(C)C)c(O)c(C(C)(C)C)c1)(C(=O)OC1CC(C)(C)N(C)C(C)(C)C1)C(=O)OC1CC(C)(C)N(C)C(C)(C)C1	1490 mg/kg	
C/C=C\CC1=C(C)[C@@H](OC(=O)[C@@H]2[C@@H](/C=C(\C)C(=O)OC)C2(C)C)CC1=O	1030 mg/kg	
ClCCCBr	930 mg/kg	
C=COCCCl	210 mg/kg	
CC(C)C(C(=O)OC(C#N)c1cccc(Oc2ccccc2)c1)c1ccc(Cl)cc1 (stereo unspecified)	135 mg/kg	
CC(=O)N[C@@H](CS)C(=O)O	3000 mg/kg	
NCCNCCN	1080 mg/kg	
CCCC(=O)Nc1ccc(OCC(O)CNC(C)C)c(C(C)=O)c1 (stereo unspecified)	3200 mg/kg	
CCOP(=S)(OCC)Oc1ccc([N+](=O)[O-])cc1	2.1 mg/kg	
COP(=O)(OC)O/C(=C\Cl)c1cc(Cl)c(Cl)cc1Cl	480 mg/kg	
CCCCO	790 mg/kg	
CC1OC(C)OC(C)OC(C)O1 (stereo unspecified)	227 mg/kg	
Cc1ncc2n1-c1ccc(Cl)cc1C(c1ccccc1F)=NC2	215 mg/kg	
Cc1ccccc1NC(=N)NC(=N)N	800 mg/kg	
N#CCNC(=O)c1cnccc1C(F)(F)F	884 mg/kg	

SMILES	LD50 (rat acute oral toxicity)	also measured
CCCC(O)C(CC)CO (stereo unspecified)	1400 mg/kg	
C=CC(=O)NC(C)(C)CS(=O)(=O)O	1830 mg/kg	
CCCN(CCC)C(=O)SCC	916 mg/kg	
O=[N+]([O-])c1cc(N(CCO)CCO)ccc1NCCO		EPA category (EPA categories): 3
CC1=CC(=O)CC(C)(C)C1	1500 mg/kg	
C/C=C/C=O	165 mg/kg	
O=C1C2CC=CCC2C(=O)N1SC(Cl)(Cl)Cl (stereo unspecified)	9000 mg/kg	
O=C(CC(C(=O)OC1CCCCC1)S(=O)(=O)O)OC1CCCCC1 (stereo unspecified)	2830 mg/kg	
CCCCOCCOC(C)=O	1880 mg/kg	
OCCCCO	1350 mg/kg	
CN1CCCC1=O	3910 mg/kg	
C[Si]1(CCC(F)(F)F)O[Si](C)(CCC(F)(F)F)O[Si](C)(CCC(F)(F)F)O1 (stereo unspecified)	180 mg/kg	
COC1CCCC1		nontoxic [3]: FALSE (not_nontoxic)
O=C1CCCC(=O)O1	540 mg/kg	
NNc1nncc2ccccc12	173 mg/kg	
Clc1cccc(Cl)c1	580 mg/kg	
CCN(CC)C(=S)SSC(=S)N(CC)CC	500 mg/kg	
Cc1ccc(S(=O)(=O)O)cc1	400 mg/kg	GHS category [1]: 5
CC(C)CO	2460 mg/kg	
CC(C)=CCC/C(C)=C/CO	3600 mg/kg	
CCC(C)n1c(=O)[nH]c(C)c(Br)c1=O (stereo unspecified)	641 mg/kg	
CC(C)NC(C)C	310 mg/kg	
CC(=O)CC(C)C	2080 mg/kg	
C#C[C@]1(O)CC[C@H]2[C@@H]3CCc4cc(O)ccc4[C@H]3CC[C@@]21C	960 mg/kg	
COc1ccc(C(=O)c2ccccc2)c(O)c1	7400 mg/kg	

SMILES	LD50 (rat acute oral toxicity)	also measured
O=C1c2ccccc2C(=O)N1[C@@H]1CCCNC1		nontoxic [3]: FALSE (not_nontoxic)
CCCCCCCCCCCCN(CCCN)CCCN	252 mg/kg	
NCCCOCCOCCOCCCN	2850 mg/kg	
CSCCC=O	490 mg/kg	
Clc1cc2c(cc1Cl)Oc1cc(Cl)c(Cl)cc1O2	0.02 mg/kg	
CCOP(=S)(OCC)SCSCC	1 mg/kg	
CCOC(=O)CCl	50 mg/kg	
CCCCSP(SCCCC)SCCCC	910 mg/kg	
N#CC(Br)Br	245 mg/kg	
CN(C)C(=O)Nc1cccc(C(F)(F)F)c1	1450 mg/kg	
CC(C)CCCCCOC(=O)c1ccccc1C(=O)OCCCCCC(C)C	22000 mg/kg	
CN(CC[C@H](N)CC(O)=N[C@H]1C=C[C@H](n2ccc(=N)nc2O)O[C@@H]1C(=O)O)C(=N)N	53.3 mg/kg	
C1=CC2CCC1C2	9580 mg/kg	
C/C=C(/C)C(=O)O[C@H]1CCN2CC=C(COC(=O)[C@](O)([C@H](C)OC)C(C)(C)O)[C@H]12	110 mg/kg	
CCC(CC)CN	310 mg/kg	
Nc1c(Cl)c(Cl)nc(C(=O)O)c1Cl	686 mg/kg	
Cc1ccc(C)c(OCCCC(C)(C)C(=O)O)c1	479 mg/kg	
C=C[Si](ON=C(C)CC)(ON=C(C)CC)ON=C(C)CC	3520 mg/kg	
N#CCCCCCCC#N	238 mg/kg	
CC(C#N)CCC#N (stereo unspecified)	170 mg/kg	
N=C(N)N	475 mg/kg and 730 mg/kg	
CCN	400 mg/kg	
O=c1nc(O)n(Cl)c(=O)n1Cl	1670 mg/kg	
CCN(CC)C(=O)c1cccc(C)c1	1950 mg/kg	
